In PubChem BioAssay AID434956 (The Scripps Research Institute Molecular Screening Center, 2010):
Activity calls are given as the source filed them. No rule for the calls is given here.

Tested on: IEC-6 cytotoxicity, ATP luminescence
Assay: IEC-6 epithelial cell viability loss – luminescence, dose response, round 1, cytotoxicity control for KLF5 inhibitor project, late-stage follow-up (AID 434956)

**Q.** How did the IC50 turn out when `CCNC(=O)c1sc(NC(=O)c2ccc3ncsc3c2)nc1C` was run?
**A.** The IC50 was > 39.8 µM (inactive).

**Q.** With `CC(C)(C)C(=O)Nc1ccc2nn(-c3ccccc3)nc2c1` as the compound, how does the IC50 read?
**A.** Its IC50 is > 39.8 µM (inactive).

**Q.** How did the IC50 turn out when `COc1ccc(-n2nc3ccc(NC(=O)C(C)(C)C)cc3n2)cc1` was run?
**A.** Its IC50 is > 39.8 µM (inactive).

**Q.** With `CC(=O)c1sc(NC(=O)c2ccc3ncsc3c2)nc1-c1ccccc1` as the compound, how does the IC50 read?
**A.** Its IC50 is > 39.8 µM (inactive).

**Q.** With `COc1ccc2nc(Nc3nc4ccc(F)cc4s3)sc2c1` as the compound, how does the IC50 read?
**A.** Its IC50 is > 39.8 µM (inactive).

**Q.** With `Cc1nc(NC(=O)c2ccc3ncsc3c2)sc1C(=O)N(C)C` as the compound, how does the IC50 read?
**A.** The IC50 was > 39.8 µM (inactive).

**Q.** `COc1ccc(-n2nc3cc(C)c(NC(=O)C(C)C)cc3n2)cc1` was tested. Which IC50 did it give?
**A.** The IC50 was > 39.8 µM (inactive).

**Q.** Which IC50 does the source give for `CC(C)(C)C(=O)Nc1ccc2nn(-c3ccc(F)cc3)nc2c1` here?
**A.** Its IC50 is > 39.8 µM (inactive).

**Q.** `CC(C)C(=O)Nc1ccc2nn(-c3ccc(Cl)cc3)nc2c1` was tested. Which IC50 did it give?
**A.** Its IC50 is > 39.8 µM (inactive).

**Q.** `CC(C)c1ccc2nc(Nc3nc4ccc(F)cc4s3)sc2c1` was tested. Which IC50 did it give?
**A.** The IC50 was > 39.8 µM (inactive).

**Q.** `CC(=O)Nc1ccc2nc(Nc3nc4ccc(F)cc4s3)sc2c1` was tested. Which IC50 did it give?
**A.** Its IC50 is 14.7 µM (inactive).

**Q.** For `CS(=O)(=O)c1ccc2nc(Nc3nc4ccc(F)cc4s3)sc2c1`, which IC50 is on record?
**A.** Its IC50 is 19.1 µM (inactive).

**Q.** How did the IC50 turn out when `CC(=O)c1sc(NC(=O)c2ccc3ncsc3c2)nc1C` was run?
**A.** The IC50 was > 39.8 µM (inactive).

**Q.** Which IC50 does the source give for `Nc1cc2nn(-c3ccccc3)nc2cc1Cl` here?
**A.** Its IC50 is > 39.8 µM (inactive).

**Q.** For `CN(C)C(=O)c1ccc2nc(Nc3nc4ccc(F)cc4s3)sc2c1`, which IC50 is on record?
**A.** The IC50 was 15.7 µM (inactive).

**Q.** `O=C(COc1ccccc1)Nc1ccc2nn(-c3cccc(Cl)c3)nc2c1` was tested. Which IC50 did it give?
**A.** The IC50 was > 39.8 µM (inactive).

**Q.** For `Cc1ccc(OCC(=O)Nc2ccc3nn(-c4cccc(C(F)(F)F)c4)nc3c2)cc1C`, which IC50 is on record?
**A.** The IC50 was > 39.8 µM (inactive).

**Q.** How did the IC50 turn out when `Cc1ccc(-n2nc3cc(Cl)c(NC(=O)c4cccnc4)cc3n2)cc1` was run?
**A.** Its IC50 is 17.8 µM (inactive).

**Q.** Which IC50 does the source give for `CC(C)(C)c1ccc(-c2noc(CCC(=O)Nc3ccncc3)n2)cc1` here?
**A.** Its IC50 is 25.6 µM (inactive).

**Q.** Which IC50 does the source give for `COc1ccc(-n2nc3ccc(NC(=O)C4CCN(S(=O)(=O)c5ccc(Cl)cc5)CC4)cc3n2)cc1` here?
**A.** Its IC50 is 31.2 µM (inactive).

**Q.** Which IC50 does the source give for `Cc1ccc(-n2nc3ccc(NC(=O)COc4ccc(C)c(C)c4)cc3n2)cc1` here?
**A.** Its IC50 is > 39.8 µM (inactive).

**Q.** How did the IC50 turn out when `CCOc1ccc2nc(Nc3nc4ccc(F)cc4s3)sc2c1` was run?
**A.** Its IC50 is > 39.8 µM (inactive).

**Q.** Which IC50 does the source give for `Cc1cccc(NC(=O)CCc2nc(-c3ccc(C(C)(C)C)cc3)no2)c1` here?
**A.** The IC50 was > 39.8 µM (inactive).

**Q.** How did the IC50 turn out when `CC(C)(C)c1ccc(-c2noc(CCC(=O)NCc3ccccc3)n2)cc1` was run?
**A.** Its IC50 is 24.1 µM (inactive).

**Q.** `CC(C)(C)c1ccc(-c2noc(CCC(=O)Nc3ccc(N4CCOCC4)nc3)n2)cc1` was tested. Which IC50 did it give?
**A.** The IC50 was > 39.8 µM (inactive).

**Q.** Which IC50 does the source give for `O=C(Cc1ccccc1)Nc1cc2nn(-c3ccccc3)nc2cc1Cl` here?
**A.** The IC50 was > 39.8 µM (inactive).

**Q.** `O=C(Nc1cc2nn(-c3ccccc3)nc2cc1Cl)C1COc2ccccc2C1` (configuration not stated) was tested. Which IC50 did it give?
**A.** The IC50 was > 39.8 µM (inactive).

**Q.** With `CC(C)(C)c1ccc(-c2coc(CCC(=O)Nc3ccccn3)n2)cc1` as the compound, how does the IC50 read?
**A.** The IC50 was > 39.8 µM (inactive).

**Q.** `O=C(Nc1cc2nn(-c3ccccc3)nc2cc1Cl)C1CC1` was tested. Which IC50 did it give?
**A.** Its IC50 is > 39.8 µM (inactive).

**Q.** For `CCNC(=O)c1ccc2nc(Nc3nc4ccc(F)cc4s3)sc2c1`, which IC50 is on record?
**A.** Its IC50 is 14.7 µM (inactive).

**Q.** `CC(C)(C)c1ccc(-c2noc(CCC(=O)Nc3ccccn3)n2)cc1` was tested. Which IC50 did it give?
**A.** The IC50 was > 39.8 µM (inactive).

**Q.** `CC(C)(C)c1ccc(-c2noc(CCCC(=O)Nc3ccccc3Cl)n2)cc1` was tested. Which IC50 did it give?
**A.** Its IC50 is > 39.8 µM (inactive).

**Q.** How did the IC50 turn out when `CC(C)(C)c1ccc(-c2noc(CCc3nc4ccccc4[nH]3)n2)cc1` was run?
**A.** The IC50 was 31.8 µM (inactive).

**Q.** With `CCOc1ccc(NC(=O)CCc2nc(-c3ccc(C(C)(C)C)cc3)no2)cc1` as the compound, how does the IC50 read?
**A.** The IC50 was > 39.8 µM (inactive).

**Q.** How did the IC50 turn out when `CC1(C)CC(=O)c2sc(NC(=O)c3ccc4ncsc4c3)nc2C1` was run?
**A.** Its IC50 is > 39.8 µM (inactive).

**Q.** Which IC50 does the source give for `CC(C)(C)c1ccc(-c2noc(CCC(=O)Nc3ccccc3)n2)cc1` here?
**A.** Its IC50 is > 39.8 µM (inactive).

**Q.** Which IC50 does the source give for `CC(NC(=O)c1ccccc1)c1nc(-c2ccc(C(C)(C)C)cc2)no1` (configuration not stated) here?
**A.** Its IC50 is 41.4 µM (inactive).
